Laboratory results: PubChem BioAssay (NCI)
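Step 1: Grow cells in 96-well plates. Step 2: Expose to compound for 48 hours at 5 concentrations. Step 3: Interpolate endpoints linearly; if unreached, use highest concentration. TGI: concentration producing complete growth inhibition.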

Tests used:
Assay in all cases: DTP human tumour cell line panel, 48 h
RXF 393 renal = test system: RXF 393 renal
786-0 renal = test system: 786-0 renal
EKVX NSCLC = test system: EKVX NSCLC
NCI-H522 lung = test system: NCI-H522 lung
MOLT-4 leukemia = test system: MOLT-4 leukemia
KM12 colon = test system: KM12 colon
NCI-H460 lung = test system: NCI-H460 lung
HT29 colon = test system: HT29 colon
UACC-62 melanoma = test system: UACC-62 melanoma
SK-OV-3 ovarian = test system: SK-OV-3 ovarian
SNB-75 CNS = test system: SNB-75 CNS
SK-MEL-5 melanoma = test system: SK-MEL-5 melanoma
UO-31 renal = test system: UO-31 renal
SK-MEL-2 melanoma = test system: SK-MEL-2 melanoma
SF-268 CNS = test system: SF-268 CNS
NCI/ADR-RES ovarian = test system: NCI/ADR-RES ovarian
A498 renal = test system: A498 renal
HS 578T breast = test system: HS 578T breast
OVCAR-3 ovarian = test system: OVCAR-3 ovarian
SF-295 CNS = test system: SF-295 CNS
HCC-2998 colon = test system: HCC-2998 colon
OVCAR-8 ovarian = test system: OVCAR-8 ovarian
HL-60(TB) leukemia = test system: HL-60(TB) leukemia
IGROV1 ovarian = test system: IGROV1 ovarian
SW-620 colon = test system: SW-620 colon
U251 CNS = test system: U251 CNS
CAKI-1 renal = test system: CAKI-1 renal
SF-539 CNS = test system: SF-539 CNS
TK-10 renal = test system: TK-10 renal
HOP-62 NSCLC = test system: HOP-62 NSCLC
UACC-257 melanoma = test system: UACC-257 melanoma
LOX IMVI melanoma = test system: LOX IMVI melanoma
COLO 205 colon = test system: COLO 205 colon
MCF7 breast = test system: MCF7 breast
OVCAR-5 ovarian = test system: OVCAR-5 ovarian
K-562 leukemia = test system: K-562 leukemia
CCRF-CEM leukemia = test system: CCRF-CEM leukemia
T-47D breast = test system: T-47D breast
NCI-H23 lung = test system: NCI-H23 lung
MDA-MB-231 breast = test system: MDA-MB-231 breast
MALME-3M melanoma = test system: MALME-3M melanoma
RPMI-8226 leukemia = test system: RPMI-8226 leukemia
HOP-92 NSCLC = test system: HOP-92 NSCLC
NCI-H226 lung = test system: NCI-H226 lung
PC-3 prostate = test system: PC-3 prostate
SR leukemia = test system: SR leukemia
DU-145 prostate = test system: DU-145 prostate
HCT-15 colon = test system: HCT-15 colon
ACHN renal = test system: ACHN renal
A549 NSCLC = test system: A549 NSCLC
MDA-MB-435 = test system: MDA-MB-435
M14 melanoma = test system: M14 melanoma
OVCAR-4 ovarian = test system: OVCAR-4 ovarian
SK-MEL-28 melanoma = test system: SK-MEL-28 melanoma
MDA-N = test system: MDA-N
SNB-19 CNS = test system: SNB-19 CNS
SN12C renal = test system: SN12C renal
HCT-116 colon = test system: HCT-116 colon

## C[C@@H](c1ccccc1)C(CC#N)[C@H]1CCC[C@]1(O)C#Cc1ccc2c(c1)OCO2 (some centres undefined)
RXF 393 renal
  TGI: 28.6 µM
786-0 renal
  TGI: 31.3 µM
EKVX NSCLC
  TGI: 35.4 µM
NCI-H522 lung
  TGI: 32.4 µM
MOLT-4 leukemia
  TGI: 25.2 µM
KM12 colon
  TGI: 31.6 µM
NCI-H460 lung
  TGI: 31.3 µM
HT29 colon
  TGI: 28.9 µM
UACC-62 melanoma
  TGI: 32.7 µM
SK-OV-3 ovarian
  TGI: 34.6 µM
SNB-75 CNS
  TGI: 32 µM
SK-MEL-5 melanoma
  TGI: 32.8 µM
UO-31 renal
  TGI: 27.7 µM
SK-MEL-2 melanoma
  TGI: 32.7 µM
SF-268 CNS
  TGI: 38.8 µM
NCI/ADR-RES ovarian
  TGI: 33.8 µM
A498 renal
  TGI: 34.9 µM
HS 578T breast
  TGI: 43.7 µM
OVCAR-3 ovarian
  TGI: 29.2 µM
SF-295 CNS
  TGI: 32.4 µM
HCC-2998 colon
  TGI: 30.3 µM
OVCAR-8 ovarian
  TGI: 32.7 µM
HL-60(TB) leukemia
  TGI: 43.8 µM
IGROV1 ovarian
  TGI: 33.9 µM
SW-620 colon
  TGI: 33.2 µM
U251 CNS
  TGI: 32.1 µM
CAKI-1 renal
  TGI: 30.8 µM
SF-539 CNS
  TGI: 24.1 µM
TK-10 renal
  TGI: 29.6 µM
HOP-62 NSCLC
  TGI: 31.3 µM
UACC-257 melanoma
  TGI: 34.6 µM
LOX IMVI melanoma
  TGI: 39.5 µM
COLO 205 colon
  TGI: 33.1 µM
MCF7 breast
  TGI: 41.3 µM
OVCAR-5 ovarian
  TGI: 30.8 µM
K-562 leukemia
  TGI: 47.8 µM
CCRF-CEM leukemia
  TGI: 35.5 µM
T-47D breast
  TGI: 32 µM
NCI-H23 lung
  TGI: 35.5 µM
MDA-MB-231 breast
  TGI: 33.7 µM
MALME-3M melanoma
  TGI: 33.8 µM
RPMI-8226 leukemia
  TGI: 62.5 µM
HOP-92 NSCLC
  TGI: 28.4 µM
NCI-H226 lung
  TGI: 33.1 µM
PC-3 prostate
  TGI: 31.1 µM
SR leukemia
  TGI: 46.6 µM
DU-145 prostate
  TGI: 31.6 µM
HCT-15 colon
  TGI: 32.3 µM
ACHN renal
  TGI: 30.8 µM
A549 NSCLC
  TGI: 29.8 µM
MDA-MB-435
  TGI: 31.3 µM
M14 melanoma
  TGI: 30.9 µM
OVCAR-4 ovarian
  TGI: 32.6 µM
SK-MEL-28 melanoma
  TGI: 30.1 µM
MDA-N
  TGI: 30.4 µM
SNB-19 CNS
  TGI: 29.8 µM

## CCN(CC)CC1CCCCN1CC(=O)N1c2ccccc2NC(=O)c2ccccc21 (centres undefined)
RXF 393 renal
  TGI: > 100 µM
786-0 renal
  TGI: > 100 µM
EKVX NSCLC
  TGI: > 100 µM
NCI-H522 lung
  TGI: > 100 µM
MOLT-4 leukemia
  TGI: > 100 µM
KM12 colon
  TGI: > 100 µM
NCI-H460 lung
  TGI: > 100 µM
HT29 colon
  TGI: > 100 µM
UACC-62 melanoma
  TGI: > 100 µM
SK-OV-3 ovarian
  TGI: > 100 µM
SNB-75 CNS
  TGI: > 100 µM
SK-MEL-5 melanoma
  TGI: > 100 µM
UO-31 renal
  TGI: 44.5 µM
SK-MEL-2 melanoma
  TGI: > 100 µM
SN12C renal
  TGI: > 100 µM
SF-268 CNS
  TGI: > 100 µM
NCI/ADR-RES ovarian
  TGI: > 100 µM
A498 renal
  TGI: > 100 µM
HS 578T breast
  TGI: > 100 µM
OVCAR-3 ovarian
  TGI: > 100 µM
SF-295 CNS
  TGI: > 100 µM
HCC-2998 colon
  TGI: > 100 µM
OVCAR-8 ovarian
  TGI: > 100 µM
HL-60(TB) leukemia
  TGI: > 100 µM
IGROV1 ovarian
  TGI: > 100 µM
SW-620 colon
  TGI: > 100 µM
U251 CNS
  TGI: > 100 µM
CAKI-1 renal
  TGI: > 100 µM
SF-539 CNS
  TGI: > 100 µM
TK-10 renal
  TGI: > 100 µM
HOP-62 NSCLC
  TGI: > 100 µM
UACC-257 melanoma
  TGI: > 100 µM
LOX IMVI melanoma
  TGI: > 100 µM
COLO 205 colon
  TGI: > 100 µM
MCF7 breast
  TGI: > 100 µM
OVCAR-5 ovarian
  TGI: > 100 µM
K-562 leukemia
  TGI: > 100 µM
CCRF-CEM leukemia
  TGI: > 100 µM
T-47D breast
  TGI: > 100 µM
NCI-H23 lung
  TGI: > 100 µM
MDA-MB-231 breast
  TGI: > 100 µM
MALME-3M melanoma
  TGI: > 100 µM
RPMI-8226 leukemia
  TGI: > 100 µM
HOP-92 NSCLC
  TGI: > 100 µM
NCI-H226 lung
  TGI: > 100 µM
PC-3 prostate
  TGI: > 100 µM
SR leukemia
  TGI: > 100 µM
DU-145 prostate
  TGI: > 100 µM
HCT-15 colon
  TGI: > 100 µM
ACHN renal
  TGI: > 100 µM
A549 NSCLC
  TGI: > 100 µM
MDA-MB-435
  TGI: > 100 µM
M14 melanoma
  TGI: > 100 µM
OVCAR-4 ovarian
  TGI: > 100 µM
SK-MEL-28 melanoma
  TGI: > 100 µM
MDA-N
  TGI: > 100 µM
HCT-116 colon
  TGI: > 100 µM
SNB-19 CNS
  TGI: > 100 µM
